Measured values taken from patent publication US20110071174A1, “SUBSTITUTED QUINAZOLINES” (Shire LLC, priority 2008, published 2011).

What was measured:
[1] = molecular target: human phosphodiesterase III (PDE III); settings: cited from earlier work
[2] = system: erythroid or myelomonocytic differentiation; settings: stimulated by erythropoietin or granulocyte-macrophage colony-stimulating factor; cited from earlier work
[3] = system: TPO-induced megakaryocytopoiesis; settings: cited from earlier work
[4] = cited from earlier work
[5] = Pharmacokinetics and exposure in humans; format: in vivo, human; settings: typical exposures, greater than anagrelide
Description: The PDE III inhibitory properties of anagrelide are quite distinct from its platelet lowering anti-megakaryocytic effects. Indeed studies have shown no correlation between potency as a PDE III inhibitor and anti-megakaryocytic effects for anagrelide and its principal pharmacologically active metabolite, 3-hydroxyanagrelide (3-OH anagrelide or 3-HA, formerly known as SPD604 or BCH24426). […] Anagrelide's active metabolite, 3-HA, is present in vivo in amounts greatly exceeding those of the parent drug with typical exposures being 2-3 fold greater. Thus by implication 3-OH anagrelide is likely to be a major contributor to the pharmacological actions of the drug.
In addition to the unwanted cardiovascular effects associated with PDE III inhibition, the consequent elevation of cAMP can result in an anti-aggregatory effect. While initially this property may appear to be beneficial in essential thrombocythemia patients predisposed to greater thrombotic risk, such anti-platelet effects, in excess, could have haemorrhagic consequences and on balance may not be desirable. […]

[6] = system: human phosphodiesterase III (PDE III); assay: PDE III inhibition; format: biochemical; settings: more potent than anagrelide
Description: In early volunteer trials, the most frequently reported adverse effects AEs other than headache were palpitations, postural dizziness and nausea. During patient studies, the most frequently reported drug-related AEs were headache, palpitations, oedema/fluid retention, nausea/vomiting, diarrhea, dizziness and abdominal pain. These effects are all likely to arise from the secondary, cardiovascular pharmacology associated with anagrelide resulting from its inhibitory effects on human phosphodiesterase III (PDE III). […] Inhibition of myocardial PDE III leads to positive inotropy (increasing of the force of contractions of the heart), increased chronotropy (increase in heart rate), and peripheral vasodilatation. Such cardiovascular manifestations of this inhibition are typically seen with the classical positive inotropes, milrinone and enoximone, and exploited in the short-term acute treatment of congestive heart failure. However, in the treatment of a so-called silent disease (i.e., asymptomatic) such as ET, the cardiovascular side-effects of palpitations and tachycardia associated with anagrelide limit its utility and a significant proportion of patients—reportedly between 25 and 50%—fail to tolerate the drug during long term treatment.

| exposure in vivo relative to parent drug [5] | potency as PDE III inhibitor relative to anagrelide [6] | SMILES | IC50 [1] [µM] | effect on erythroid or myelomonocytic differentiation [2] | IC50 ([3]; estimated, in vitro human megakaryocytopoiesis, read-out: IC50 for inhibition of TPO-induced megakaryocytopoiesis) [µM] | first pass effect ([4]; in vivo) [%] | potency in inhibition of megakaryocytopoiesis relative to parent drug ([3]; compared with anagrelide) | half-life ([4]; typical) [h] |
| --- | --- | --- | --- | --- | --- | --- | --- | --- |
| – | – | Cc1[nH]c(=O)c(C#N)cc1-c1ccncc1 [milrinone] | 0.17 to 0.35 | – | – | – | – | – |
| – | – | O=C1CN2Cc3c(ccc(Cl)c3Cl)N=C2N1 [Anagrelide, 6,7-dichloro-1,5-dihydroimidazo[2,1-b]-quinazolin-2(3H)-one] | ~0.029 | does not affect | ~0.026 | > 50 | – | – |
| 2-3 fold | over 40 fold | O=C1NC2=Nc3ccc(Cl)c(Cl)c3CN2C1O (stereo not drawn) [3-hydroxyanagrelide] | – | – | – | – | no more potent than the parent drug | 2.5 |
